Measured values as given in US20200339625A1, “NOVEL RADIOMETAL-BINDING COMPOUNDS FOR DIAGNOSIS OR TREATMENT OF PROSTATE SPECIFIC MEMBRANE ANTIGEN-EXPRESSING CANCER” (PROVINCIAL HEALTH SERVICES AUTHORITY, priority 2017, published 2020).

What was measured:
[1] = tested on: mice bearing LNCaP tumor xenografts; test: PET/CT imaging of 68Ga-labeled compounds; assay type: in vivo
Method in brief: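 Male NOD SCID IL2Rγ KO mice bore subcutaneous LNCaP xenografts (1×10^7 cells, tumours 5-8 mm) and received 6-8 MBq tracer via tail vein under 2% isoflurane. At 50 min p.i., a 10-min CT and a 10-min static PET were acquired. For the 3 h time point, scanning began at 170 min p.i. with a 15-min static PET.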

[2] = tested on: mice bearing PSMA-expressing LNCAP cancer xenografts; test: Biodistribution of 68Ga-labeled compounds; assay type: in vivo
Method in brief: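 NOD-SCID IL2RγKO male mice carried subcutaneous LNCaP xenografts grown to 5-8 mm over 5-6 weeks. Organs and blood were collected at 1 or 3 h after injection of the radiotracer and gamma-counted. Uptake was normalized to injected dose via a standard curve and expressed as %ID/g.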

- change of tumor uptake from 1 h to 3 h post-injection ([1]; PET/CT images): increases over time
- excretion pathway ([1]; PET/CT images): excreted mainly by the renal pathway
- blood retention (qualitative) ([1]; PET/CT images at 1 h and 3 h post-injection, comparison within the figure): significantly higher blood retention
- Adrenal glands uptake ([2]; 1 h post-injection): 3.28 ± 0.54 % ID/g
- Blood uptake ([2]; 1 h post-injection): 12.1 ± 0.60 % ID/g
- Bone uptake ([2]; 1 h post-injection): 0.72 ± 0.19 % ID/g
- Brain uptake ([2]; 1 h post-injection): 0.15 ± 0.01 % ID/g
- Fat uptake ([2]; 1 h post-injection): 1.37 ± 0.17 % ID/g
- Heart uptake ([2]; 1 h post-injection): 2.76 ± 0.25 % ID/g
- Intestine uptake ([2]; 1 h post-injection): 0.91 ± 0.07 % ID/g
- Kidneys uptake ([2]; 1 h post-injection): 54.7 ± 4.84 % ID/g
- Lacrimal uptake ([2]; 1 h post-injection): 0.24 ± 0.05 % ID/g
- Liver uptake ([2]; 1 h post-injection): 1.77 ± 0.27 % ID/g
- Lungs uptake ([2]; 1 h post-injection): 5.43 ± 0.65 % ID/g
- Muscle uptake ([2]; 1 h post-injection): 0.94 ± 0.02 % ID/g
- Pancreas uptake ([2]; 1 h post-injection): 1.16 ± 0.11 % ID/g
- Salivary uptake ([2]; 1 h post-injection): 2.51 ± 0.18 % ID/g
- Seminal uptake ([2]; 1 h post-injection): 0.71 ± 0.10 % ID/g
- Spleen uptake ([2]; 1 h post-injection): 2.18 ± 0.51 % ID/g
- Stomach uptake ([2]; 1 h post-injection): 0.34 ± 0.04 % ID/g
- Tail uptake ([2]; 1 h post-injection): 3.39 ± 0.59 % ID/g
- Testes uptake ([2]; 1 h post-injection): 1.54 ± 0.18 % ID/g
- Thyroid uptake ([2]; 1 h post-injection): 2.24 ± 0.15 % ID/g
- Tumor uptake ([2]; 1 h post-injection): 17.8 ± 2.89 % ID/g
- Tumor:Blood ratio ([2]; 1 h post-injection): 1.47 ± 0.28
- Tumor:Muscle ratio ([2]; 1 h post-injection): 18.8 ± 2.968
- Tumor:kidney ratio ([2]; 1 h post-injection): 0.32 ± 0.04
- Urine uptake ([2]; 1 h post-injection): 82.9 ± 62.5 % ID/g
- Adrenal glands uptake ([2]; 3 h post-injection): 1.80 ± 0.39 % ID/g
- Blood uptake ([2]; 3 h post-injection): 6.60 ± 0.84 % ID/g
- Bone uptake ([2]; 3 h post-injection): 0.33 ± 0.16 % ID/g
- Brain uptake ([2]; 3 h post-injection): 0.09 ± 0.02 % ID/g
- Fat uptake ([2]; 3 h post-injection): 0.95 ± 0.12 % ID/g
- Heart uptake ([2]; 3 h post-injection): 1.53 ± 0.21 % ID/g
- Intestine uptake ([2]; 3 h post-injection): 0.71 ± 0.07 % ID/g
- Kidneys uptake ([2]; 3 h post-injection): 48.5 ± 10.7 % ID/g
- Lacrimal uptake ([2]; 3 h post-injection): 0.07 ± 0.04 % ID/g
- Liver uptake ([2]; 3 h post-injection): 1.40 ± 0.35 % ID/g
- Lungs uptake ([2]; 3 h post-injection): 3.49 ± 0.64 % ID/g
- Muscle uptake ([2]; 3 h post-injection): 0.57 ± 0.09 % ID/g
- Pancreas uptake ([2]; 3 h post-injection): 0.70 ± 0.11 % ID/g
- Salivary uptake ([2]; 3 h post-injection): 1.39 ± 0.13 % ID/g
- Seminal uptake ([2]; 3 h post-injection): 0.47 ± 0.09 % ID/g
- Spleen uptake ([2]; 3 h post-injection): 1.58 ± 0.37 % ID/g
- Stomach uptake ([2]; 3 h post-injection): 0.27 ± 0.08 % ID/g
- Tail uptake ([2]; 3 h post-injection): 1.50 ± 0.17 % ID/g
- Testes uptake ([2]; 3 h post-injection): 1.30 ± 0.30 % ID/g
- Thyroid uptake ([2]; 3 h post-injection): 1.39 ± 0.16 % ID/g
- Tumor uptake ([2]; 3 h post-injection): 28.2 ± 5.44 % ID/g
- Tumor:Blood ratio ([2]; 3 h post-injection): 4.33 ± 1.06
- Tumor:Muscle ratio ([2]; 3 h post-injection): 50.5 ± 13.5
- Tumor:kidney ratio ([2]; 3 h post-injection): 0.59 ± 0.10
- Urine uptake ([2]; 3 h post-injection): 1.30 ± 47.9 % ID/g
SMILES: COc1ccc(CCCC(=O)NCC(=O)N[C@@H](CCCCNC(=O)CN2CCN(CC(=O)[O-])CCN(CC(=O)[O-])CCN(CC(=O)[O-])CC2)C(=O)NC[C@H]2CC[C@H](C(=O)N[C@@H](Cc3ccc4ccccc4c3)C(=O)NCCCC[C@H](NC(=O)N[C@@H](CCC(=O)O)C(=O)O)C(=O)O)CC2)cc1.[68Ga+3] [^68Ga-HTK03086]
